Assays:
[1] = system: Candida spp.; test: Disk diffusion method, 18 Candida spp. strains (distribution); format: cell-based; conditions: for inhibition rings diameter, average (including 6.0 mm of the disk) / inhibition rings diameter, range (including 6.0 mm of the disk) / % inhibited strains: 18 strains; for inhibition rings diameter, average (including 6.0 mm of the disk) / inhibition rings diameter, range (including 6.0 mm of the disk): disk 10 μl oil or 10 μg amphotericin B, 35° C. 24 hours; for inhibition of the tested Candida strains (words) / inhibition rings compared with those caused by amphotericin B (10 μg): disks soaked with the oils separately; for % inhibited strains: ring equal or greater than that of amphotericin B
Experimental: (§1) A total of eighteen strains belonging to Candida spp. (15 C. albicans, 2 C. glabrata and 1 C. lusitaniae) derived from a collection of vaginal strains isolated in CHROMAgar Candida (BD Italia SpA, Milan, Italy) were grown on Potato Dextrose Agar (Oxoid Thermofisher SpA, Milan, Italy) at 35° C. for 24 hours.
(§2) Colonies were re-suspended in sterile saline at a density corresponding to #0.5 McFarland (opacity standard). #0.5 McF correspond to 1.4×10^6 colony forming units (CFU)/ml for C. albicans, 4.3×10^6 CFU/ml for C. glabrata and 3×10^6 CFU/ml for C. lusitaniae [Guinea J. et al., Rapid antifungal susceptibility determination for yeast isolates by use of Etest performed directly on blood samples from patients with fungemia, J Clin Microbiol. 2010 June, 48(6): 2205-12]. Then, the sensitivity test vs the two oils has been performed. The disk diffusion method was carried out as follows: for each tested strain, 4 plates of Potato Dextrose Agar (PDA) were seeded in 3 directions to produce a confluent growth, by sterile swab soaked in the cell suspension. Sorbent paper disks (Oxoid Thermofisher SpA, Milan, Italy) 6.0 mm diameter were placed on the agar surface and added with 10 μl of each essential oil. Disks soaked with 10 μg amphotericin B were used as positive control. Also disks of chlortrimazole (from 10 μg to 40 μg) were used, but the inhibition rings could not be clearly read due to the formation of a re-growth ring. Disks soaked with 10 μl pure dimethylsulphoxide (DMSO, Sigma-Aldrich, St. Louis, MO, USA) were used as negative control. The plates were incubated at 35° C. for 24 hours. All the experiments were carried out in duplicate. The inhibiting effect of the oils were considered to be effective when the inhibition ring was equal or greater than that caused by amphotericin B. For amphotericin B, an inhibition zone (IZ)≥15 mm was considered as “sensitivity”, from 10 to 14 mm as “intermediate sensitivity” and <10 mm as “resistance” [Kauser et al., Agreement of Direct Antifungal Susceptibility Testing from Positive Blood Culture Bottles with Conventional Method for Candida Species, J Clin Microbiol. 2016 February, 54(2):343-34].

[2] = system: C. albicans; test: Disk diffusion method, C. albicans strains; format: cell-based
Experimental: as §1, §2

[3] = system: C. glabrata; test: Microdilution method MIC/MFC, C. glabrata strains; format: cell-based
Experimental: as §1
(§3) The antifungal activity of amphotericin B and of cinnamaldheyde and eugenol were tested with the microdilution method as reported by Bona et al. [Bona et al., Sensitivity of Candida albicans to essential oils: are they an alternative to antifungal agents? J Appl Microbiol. 2016 December, 121(6): 1530-1545] with small changes. All the 18 Candida spp strains were tested. For each isolated, the colonies deriving from cultures (24 hours) in PDA were diluted in saline up to a concentration of 2×10^3 CFU/ml (so obtaining a final concentration of 10 3CGU/ml). Cinnamaldehyde and eugenol were dissolved in DMSO (80% oil, 20% DMSO), then diluted in Sabouraud broth up to a concentration of 8% v/v (so obtaining a final concentration of 4% v/v). Then, in a 96-well microtiter plate ½ serial dilution of amphotericin B (range 32-0.032 μg/ml, for a final range of 16-0.016 μg/ml) and of the essential oils (range 8-0.004% v/v, for a final range of 4-0.002% v/v) were carried out. Each well was then injected with 100 μl of cell suspension. The negative control contained DMSO diluted in Sabouraud broth (at 2% v/v, for a final concentration of 1% v/v). […] Each experiment was carried out in duplicate. The Minimum Inhibitory Concentration (MIC) was determined as the concentration of the oils in the first well which is not cloudy. The Minimum Fungicidal Concentration (MFC) was determined as the lowest concentration of the oils, with the agar culture showing the complete absence of fungal growth. The determination of the amphotericin B MIC was carried out also according to the EUCAST guidelines (cutoff 1 μg/ml) [https://eucast.org/astoffungi/clinicalbreakpointsforantifungals], all the results being consistent.

[4] = system: C. lusitaniae; test: Microdilution method MIC/MFC, C. lusitaniae strain; format: cell-based; conditions: C. lusitaniae 1
Experimental: as §1, §3

[5] = system: L. acidophilus strain La-14; test: Disk diffusion vs L. acidophilus; format: cell-based, Lactobacillus acidophilus; conditions: 10 μl oil per disk; MRS agar, 37° C. 24 hours, anaerobiosis
Experimental: The antibacterial activity of cinnamaldheyde and eugenol vs L. acidophilus was studied by using the disk diffusion method (reading scheme as reported in FIG. 1) and the microdilution method (reading scheme as reported in FIG. 2). A L. acidophilus strain named La-14 (Danisco SpA, Milan, Italy) was tested.
Colonies deriving from a 24-hour culture in DeManRogosaSharpe agar (MRS, OXOID SpA, Milan, Italy) were suspended in saline up to a concentration corresponding to #0.5 McFarland. A total of 3 plates of MRS agar were seeded in 3 directions to produce a confluent growth, by sterile swab soaked in the bacterial suspension. Sorbent paper disks 6.0 mm diameter were placed on each plate and soaked with 10 μl of each oil. Disks soaked with […] pure DMSO were used as negative control. The plates were incubated at 37° C. for 24 hours in anaerobiosis (anaerogen gaspack, OXOID SpA, Milan, Italy). The experiment was carried out in duplicate.

Compound	inhibition rings diameter, average (including 6.0 mm of the disk) [1] [mm]	inhibition rings diameter, range (including 6.0 mm of the disk) [1]	inhibition of the tested Candida strains (words) [1]	inhibition rings compared with those caused by amphotericin B (10 μg) [1]	% inhibited strains [1]	Diameters of the inhibition rings (including 6.0 mm of the disk) ([2]; C. albicans 1) [mm]	Diameters of the inhibition rings (including 6.0 mm of the disk) ([2]; C. albicans 2) [mm]	Diameters of the inhibition rings (including 6.0 mm of the disk) ([2]; C. albicans 3) [mm]	Diameters of the inhibition rings (including 6.0 mm of the disk) ([2]; C. albicans 4) [mm]	Diameters of the inhibition rings (including 6.0 mm of the disk) ([2]; C. albicans 5) [mm]	Diameters of the inhibition rings (including 6.0 mm of the disk) ([2]; C. albicans 6) [mm]	Diameters of the inhibition rings (including 6.0 mm of the disk) ([2]; C. albicans 7) [mm]	Diameters of the inhibition rings (including 6.0 mm of the disk) ([2]; C. albicans 8) [mm]	Diameters of the inhibition rings (including 6.0 mm of the disk) ([2]; C. albicans 9) [mm]	Diameters of the inhibition rings (including 6.0 mm of the disk) ([2]; C. albicans 10) [mm]	Diameters of the inhibition rings (including 6.0 mm of the disk) ([2]; C. albicans 11) [mm]	Diameters of the inhibition rings (including 6.0 mm of the disk) ([2]; C. albicans 12) [mm]	Diameters of the inhibition rings (including 6.0 mm of the disk) ([2]; C. albicans 13) [mm]	Diameters of the inhibition rings (including 6.0 mm of the disk) ([2]; C. albicans 14) [mm]	Diameters of the inhibition rings (including 6.0 mm of the disk) ([2]; C. albicans 15) [mm]	further results
O=CC=Cc1ccccc1 [Cinnamaldheyde, cinnamaldehyde]	69	55-75 mm	inhibited all tested strains	notably greater	100% (18/18)	65.0	70.0	67.0	66.0	71.0	67.0	75.0	67.0	70.5	72.5	75.0	75.0	71.0	75.0	70.0	inhibition of the tested Candida strains (words) ([1]; listed as cinnamaldheyde): inhibited the growth of all tested Candida strains; MFC ([3]; C. glabrata 1): 0.008 % v/v; MIC ([3]; C. glabrata 1): 0.004 % v/v; MFC ([3]; C. glabrata 2): 0.016 % v/v; MIC ([3]; C. glabrata 2): 0.016 % v/v; MFC [4]: ≤0.002 % v/v; MIC [4]: ≤0.002 % v/v; inhibition ring diameter [5]: 10 mm
C=CCc1ccc(O)c(OC)c1 [Eugenol, eugenol]	35.2	30.5-41 mm	inhibited the growth of all tested Candida strains	notably greater	100% (18/18)	35.0	35.0	33.0	35.0	35.0	36.0	44.0	41.0	34.0	34.5	34.0	34.0	35.0	34.0	34.0	MFC ([3]; C. glabrata 1): 0.032 % v/v; MIC ([3]; C. glabrata 1): 0.032 % v/v; MFC ([3]; C. glabrata 2): 0.125 % v/v; MIC ([3]; C. glabrata 2): 0.125 % v/v; MFC [4]: 0.064 % v/v; MIC [4]: 0.032 % v/v; inhibition ring diameter [5]: did not produced any inhibition ring

— patent US20240197650A1, “Combination of Cinnamaldheyde and Eugenol with Antimycotic Activity” (priority 2021, published 2024)
